# Experimental data as given in patent publication US8618074B2, “GPCR enhanced neuroprotection to treat brain injury” (Board of Regents of the University of Texas System, priority 2007, dated 2013).
# Key:
# astrocytes [1] = assay: MCB (reduced GSH) fluorescence of cortical astrocytes after RB-induced clot/ischemia; format: in vivo, mouse; details: 340 minutes after the initial clot; tail vein injection with RB
# Method: In another series of experiments, a transgenic mouse expressing green fluorescent protein (GFP) in astrocytes was prepared for imaging. In this mouse, the cortical cells were labeled with monochlorobimane (MCB), a fluorescent indicator of reduced GSH. After obtaining an image of astrocytes (GFP) and MCB fluorescence, the mouse was tail vein injected with Rose Bengal (RB), FITC-dextran and the P2Y-R agonist 2-MeSADP. A clot was induced with 543 nm irradiation in a region of the brain. Breakdown of the blood brain barrier in the region near this clot permitted secretion of 2-MeSADP in the nearby astrocytes. MCB fluorescence was maintained for over an hour in all of the cells in the field of view. […] The persistence of GSH in this area indicates an enhanced region of protection against oxidative stress caused by ischemia. Lineplots of MCB fluorescence of the astrocytes is depicted in FIG. 7. Cells a1-a3 are within the protected zone and cells a4-a6 are outside this area.
# [2] = system: RB-induced cerebral infarcts in the mouse cortex; assay: RB-induced photothrombotic cerebral infarct size, small animal imaging with PE-Cy5.5 anti-CD40; format: in vivo
# Method: These set of experiments utilizes small animal imaging studies to non-invasively study the impact of G-protein stimulated IP3-gated Ca^2+ release on astrocyte neuroprotection during the aging process. In brief, focal cerebral infarcts are induced using photothrombosis as described in EXAMPLE 8. However, irradiation of the brain with green light is carried out through the cranium with a 10× objective. […] We observe the size of the lesion in subsequent days by taking advantage of an inflammatory response at the lesion, which we label with a fluorescently conjugated antibody to CD40 (PE-Cy5.5-anti-mouse-CD40). […] It has also been reported that the PE-Cy5.5 CD40 antibody localized to activated endothelium at the brain lesion and to blood derived cells of the mononuclear lineage. We have successfully used this approach to image RB-induced brain inflammation in mice with high sensitivity and specificity. […] To carry out these experiments, 3 mice were imaged. On the day of the initial photothrombosis, one mouse was injected with Rose Bengal, one with Rose Bengal and 2-MeSADP and the third mouse was injected only with saline. […] For one set of mice, we re-imaged the mice at day 17 post occlusion and found CD40 labeling undetectable in the 2-MeSADP injected mouse. […] Finally, in one mouse, we also injected a fluorescent dye (IR-820) on day 3 that is a strong indicator of blood brain barrier dysfunction. Accumulation of this dye at the site of a lesion is consistent with a permeant (i.e., compromised) blood brain barrier. As noted above small animal imaging has been successfully employed to progressively follow and measure the size of Rose Bengal (RB)-induced brain infarcts in live mice for over 2 weeks.
# astrocytes [3] = assay: Fura-2 two-photon imaging of intracellular Ca2+ response; format: cell-based, mouse
# Method: Ca^2+ activity was imaged as previously described (Camacho and Lechleiter, 1995). In brief, cultured astrocytes were incubated with the fura-2 am (Molecular Probes, #F-1221) 30 min prior to the experiment. Images were acquired with two-photon excitation (800 nm) at the rate of 1.5 images/ sec. […] Images were analyzed with Image J and ANALYZE® software (the Mayo Foundation, Rochester, MN). The D-enantiomer of the 1P3-BM ester was synthesized by Stuart Conway in the Cambridge University Chemical Laboratory by using a modification of the protocol of Tsien and co-workers (Li et al., 1997).
# The primary response of glial cells to extracellular ATP is an increase in intracellular Ca^2+. To investigate whether the protective effect of ATP could be initiated by a Ca^2+ response, we loaded cultures of astrocytes with the Ca^2+ indicator dye Fura-2 AM (10 μM for 30 minutes). Fura-2 fluorescence was imaged with 2-photon microscopy using 800 nm excitation. At this wavelength, fluorescence is primarily due to the Ca^2+ free form of fura-2. […] When young astrocyte cultures were exposed to extracellular ATP (10 μM for 10 minutes), the peak intracellular Ca^2+ (−ΔF/F) was increased to 0.46±0.02 (n=25, pooled from 2 experiments). […] We tested whether the ATP-induced Ca^2+ response could be attributed to the metabotropic pathway, since IP3 mediated Ca^2+ release can stimulate mitochondrial energy production as well as sensitize mitochondria to apoptotic stimuli. Astrocytes cultured from old mice were pretreated with Xestospongin C (XeC, 25 μM for 30 minutes), which is a competitive inhibitor of IP3 binding to the IP3R. […] This is consistent with other reports showing that activation of the ionotropic P2X receptor activation also increases Ca^2+ in cultured astrocytes. To determine whether the metabotropic pathway was involved with the protective effect of extracellular ATP, we subsequently exposed the XeC/ATP treated astrocytes to oxidative stress. As described above, the perfusate contained t-BuOOH (100 μM) and TMRE (200 nM) to monitor ΔΨ. Under these experimental conditions, the average time until ΔΨ collapse was reduced to 5.48±0.22 (n=23, pooled from 2 experiments) in young astrocytes (FIG. 1C) and to 4.02±0.18 h (n=19, pooled from 2 experiments) in old astrocytes (FIG. 2C). […] We concluded that the protective effect of ATP on astrocytes was mediated by P2Y-receptors (P2Y-Rs).
SMILES,MCB fluorescence (GSH) of astrocytes near the initial clot zone (astrocytes [1]),size of the cerebral infarct ([2]; 2-MeSADP introduced 24 hours later),size of the cerebral infarct ([2]; 2-MeSADP present during the initial photothrombosis (day 0)),"size of the lesion ([2]; day 3 after cerebral infarction, co-injected with Rose Bengal, versus Rose Bengal or saline alone)",CD40 labeling ([2]; day 17 post occlusion),"peak Ca2+ amplitude (−ΔF/F) (astrocytes [3]; old astrocytes, ATP 10 μM)","peak intracellular Ca2+ (−ΔF/F) (astrocytes [3]; young astrocytes, ATP 10 μM for 10 minutes)"
CSc1nc(N)c2ncn([C@@H]3O[C@H](COP(=O)(O)OP(=O)(O)O)[C@@H](O)[C@H]3O)c2n1 [2-MeSADP],essentially maintained,reduced,reduced,significantly smaller,undetectable,–,–
Nc1ncnc2c1ncn2[C@@H]1O[C@H](COP(=O)(O)OP(=O)(O)OP(=O)(O)O)[C@@H](O)[C@H]1O [ATP],–,–,–,–,–,0.46±0.04,0.46±0.02
